In patent publication US20260193293A1, “PEPTIDES CAPABLE OF INHIBITING PROTEIN-PROTEIN INTERACTIONS AT GABAB1A SUBUNIT AND USES THEREOF” (UNIVERSITY OF COPENHAGEN, priority 2022, published 2026):
Like-named read-outs stand apart in the source and are kept apart here. Blank lines part the entries; values can stand above or below the molecule they belong to. Non-standard residues stand in square brackets, D forms with d. Residues, ends and D or L forms follow the SMILES beside them. NMeI = CC[C@H](C)[C@H](NC)C(=O)O; NMeV = CN[C@H](C(=O)O)C(C)C

Target: Sushi domains (SD1/2) protein
Test: Fluorescence polarization (FP) competition assay with AJAP-1probe, calculated Ki
Type: binding
Conditions: read-out: Ki (nM) mean ± SEM
Summary of the method: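 Competition against 25 nM TAMRA-labelled peptide probe binding SD1/2, in PBS pH 7.4 with 1% BSA at rt, read at 530/580 nm. IC50 from sigmoidal dose-response fits, at least triplicate; Ki calculated from IC50 using probe Kd from saturation binding.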

[1] = Table 6, elongation and truncation scan of PIANP binding epitope
[2] = Table 11, deep mutational scanning validation variants of AJAP-1WT
[3] = Table 8, Ala-, D-amino acids and N-methylation scans of AJAP-1WT
[4] = Table 4, truncation and elongation scans of APP epitope
[5] = Table 9, Ala-, D-amino acids and N-methylation scans of PIANPWT

Ki [3]: 48 ± 2 nM
Compound: CC[C@H](C)[C@H](NC(=O)[C@H](Cc1ccccc1)NC(=O)[C@H](CCC(=O)O)NC(=O)[C@@H](NC(=O)[C@H](CCC(=O)O)NC(C)=O)[C@@H](C)O)C(=O)N[C@@H](C)C(=O)N[C@@H](Cc1c[nH]c2ccccc12)C(=O)NCC(=O)N1CCC[C@H]1C(=O)N[C@H](C(=O)NCC(=O)N[C@@H](CC(=O)O)C(=O)N[C@@H](CCC(=O)O)C(=O)N[C@@H](CC(=O)O)C(N)=O)[C@@H](C)CC [ETEFIAWGPIGDED] (Ac-ETEFIAWGPIGDED-NH2)

Ki [5]: 1780 ± 87 nM
Compound: CC[C@H](C)[C@H](NC(=O)[C@H](C)NC(=O)[C@H](Cc1c[nH]c2ccccc12)NC(=O)[C@@H]1CCCN1C(C)=O)C(=O)N[C@H](C(=O)N[C@@H](Cc1c[nH]c2ccccc12)C(=O)NCC(=O)N1CCC[C@H]1C(=O)N[C@H](C(=O)N(C)[C@H](C(=O)N[C@@H](CO)C(=O)N[C@@H](CCCNC(=N)N)C(=O)N[C@@H](CCC(=O)O)C(=O)N[C@@H](CC(=O)O)C(N)=O)C(C)C)[C@@H](C)O)C(C)C (Ac-PWAIVWGPT[NMeV]SRED-NH2)

Ki [5]: 370 ± 5 nM
Compound: CC[C@H](C)[C@@H](C(=O)N[C@H](C(=O)N[C@@H](Cc1c[nH]c2ccccc12)C(=O)NCC(=O)N1CCC[C@H]1C(=O)N[C@H](C(=O)N[C@H](C(=O)N[C@@H](CO)C(=O)N[C@@H](CCCNC(=N)N)C(=O)N[C@@H](CCC(=O)O)C(=O)N[C@@H](CC(=O)O)C(N)=O)C(C)C)[C@@H](C)O)C(C)C)N(C)C(=O)[C@H](C)NC(=O)[C@H](Cc1c[nH]c2ccccc12)NC(=O)[C@@H]1CCCN1C(C)=O [PWA(N-Me-I)VWGPTVSRED] (Ac-PWA[NMeI]VWGPTVSRED-NH2)

Ki [4]: 585 ± 10 nM
Compound: CC(=O)N[C@@H](CCC(=O)O)C(=O)N[C@@H](CCC(=O)O)C(=O)N[C@@H](CC(=O)O)C(=O)N[C@@H](CC(=O)O)C(=O)N[C@@H](CO)C(=O)N[C@@H](CC(=O)O)C(=O)N[C@H](C(=O)N[C@@H](Cc1c[nH]c2ccccc12)C(=O)N[C@@H](Cc1c[nH]c2ccccc12)C(=O)NCC(=O)NCC(=O)N[C@@H](C)C(=O)N[C@@H](CC(=O)O)C(=O)N[C@H](C(N)=O)[C@@H](C)O)C(C)C (Ac-EEDDSDVWWGGADT-NH2)

Ki [5]: 572 ± 9 nM
Compound: CC[C@H](C)[C@H](NC(=O)[C@H](C)NC(=O)[C@H](Cc1c[nH]c2ccccc12)NC(=O)[C@@H]1CCCN1C(C)=O)C(=O)N[C@H](C(=O)N[C@@H](Cc1c[nH]c2ccccc12)C(=O)NCC(=O)N1CCC[C@H]1C(=O)N[C@H](C(=O)N[C@H](C(=O)N[C@@H](CO)C(=O)N[C@@H](CCCNC(=N)N)C(=O)N[C@@H](CCC(=O)O)C(=O)N[C@@H](C)C(N)=O)C(C)C)[C@@H](C)O)C(C)C (Ac-PWAIVWGPTVSREA-NH2)

Ki [3]: 44 ± 1 nM
Compound: CC[C@H](C)[C@H](NC(=O)[C@H](Cc1ccccc1)NC(=O)[C@H](CCC(=O)O)NC(=O)[C@@H](NC(=O)[C@H](CCC(=O)O)NC(C)=O)[C@@H](C)O)C(=O)N[C@@H](C)C(=O)N[C@@H](Cc1c[nH]c2ccccc12)C(=O)NCC(=O)N1CCC[C@H]1C(=O)N[C@H](C(=O)NCC(=O)N[C@@H](CC(=O)O)C(=O)N[C@@H](CCC(=O)O)C(=O)N[C@@H](C)C(N)=O)[C@@H](C)O (Ac-ETEFIAWGPTGDEA-NH2)

Ki [2]: 39 ± 1 nM
Compound: CC[C@H](C)[C@H](NC(=O)[C@H](Cc1ccccc1)NC(=O)[C@H](CCC(=O)O)NC(=O)[C@@H](NC(=O)[C@H](CCC(=O)O)NC(C)=O)[C@@H](C)O)C(=O)N[C@@H](C)C(=O)N[C@@H](Cc1c[nH]c2ccccc12)C(=O)NCC(=O)N1CCC[C@H]1C(=O)N[C@H](C(=O)NCC(=O)N[C@@H](CC(=O)O)C(=O)N[C@@H](CC(N)=O)C(=O)N[C@@H](CC(=O)O)C(N)=O)[C@@H](C)O

Further lines, the molecule ahead of its results:

Compound: CC[C@H](C)[C@H](NC(=O)[C@H](C)NC(=O)[C@H](Cc1c[nH]c2ccccc12)NC(=O)[C@@H]1CCCN1C(C)=O)C(=O)N[C@H](C(=O)N[C@@H](Cc1c[nH]c2ccccc12)C(=O)NCC(=O)N1CCC[C@H]1C(=O)N[C@H](C(=O)N[C@H](C(=O)N[C@@H](CO)C(=O)N[C@@H](CCCNC(=N)N)C(=O)N[C@@H](CCC(=O)O)C(=O)N[C@@H](CC(=O)O)C(=O)NCC(=O)NCC(=O)N[C@@H](CC(=O)O)C(=O)N1CCC[C@H]1C(=O)N[C@@H](CC(N)=O)C(N)=O)C(C)C)[C@@H](C)O)C(C)C (Ac-PWAIVWGPTVSREDGGDPN-NH2)
Ki [1]: 579 ± 21 nM

Compound: CC[C@H](C)[C@H](NC(=O)[C@H](C)NC(=O)[C@H](Cc1c[nH]c2ccccc12)NC(=O)[C@@H]1CCCN1C(C)=O)C(=O)N[C@H](C(=O)N[C@@H](Cc1c[nH]c2ccccc12)C(N)=O)C(C)C [PWAIVW] (Ac-PWAIVW-NH2)
Ki [1]: 706 ± 16 nM

Compound: CC[C@H](C)[C@H](NC(=O)[C@H](Cc1ccccc1)NC(=O)[C@H](CCC(=O)O)NC(=O)[C@@H](NC(=O)[C@H](CCC(=O)O)NC(C)=O)[C@@H](C)O)C(=O)N[C@@H](C)C(=O)N[C@@H](Cc1c[nH]c2ccccc12)C(=O)NCC(=O)N1CCC[C@H]1C(=O)N[C@H](C(=O)NCC(=O)N[C@@H](CC(=O)O)C(=O)N[C@@H](CCCNC(=N)N)C(=O)N[C@@H](CC(=O)O)C(N)=O)[C@@H](C)O (Ac-ETEFIAWGPTGDRD-NH2)
Ki [2]: 54 ± 2 nM

Compound: CC[C@H](C)[C@H](NC(=O)[C@H](Cc1ccccc1)NC(=O)[C@H](CCC(=O)O)NC(=O)[C@@H](NC(=O)[C@H](CCC(=O)O)NC(C)=O)[C@@H](C)O)C(=O)N[C@@H](C)C(=O)N[C@@H](Cc1c[nH]c2ccccc12)C(=O)NCC(=O)N1CCC[C@H]1C(=O)N[C@@H](C)C(=O)NCC(=O)N[C@@H](CC(=O)O)C(=O)N[C@@H](CCC(=O)O)C(=O)N[C@@H](CC(=O)O)C(N)=O [ETEFIAWGPAGDED] (Ac-ETEFIAWGPAGDED-NH2)
Ki [3]: 89 ± 2 nM

Compound: CC(=O)N[C@@H](C)C(=O)N[C@@H](CCC(=O)O)C(=O)N[C@@H](CCC(=O)O)C(=O)N[C@@H](CC(=O)O)C(=O)N[C@@H](CC(=O)O)C(=O)N[C@@H](CO)C(=O)N[C@@H](CC(=O)O)C(=O)N[C@H](C(=O)N[C@@H](Cc1c[nH]c2ccccc12)C(=O)N[C@@H](Cc1c[nH]c2ccccc12)C(=O)NCC(=O)NCC(=O)N[C@@H](C)C(=O)N[C@@H](CC(=O)O)C(=O)N[C@H](C(=O)N[C@@H](CC(=O)O)C(=O)N[C@@H](Cc1ccc(O)cc1)C(=O)N[C@@H](C)C(=O)N[C@@H](CC(=O)O)C(N)=O)[C@@H](C)O)C(C)C
Ki [4]: 237 ± 8 nM

Compound: CC[C@H](C)[C@H](NC(=O)[C@H](Cc1c[nH]c2ccccc12)NC(=O)[C@H](CC(=O)O)NC(=O)[C@H](CC(=O)O)NC(=O)[C@H](CC(=O)O)NC(=O)[C@H](CCC(=O)O)NC(=O)[C@H](CCCNC(=N)N)NC(=O)[C@H](CCCNC(=N)N)NC(=O)[C@H](CCCNC(=N)N)NC(=O)[C@H](CCCNC(=N)N)NC(=O)[C@H](CCCNC(=N)N)NC(C)=O)C(=O)N[C@@H](CC(=O)O)C(=O)N[C@@H](Cc1c[nH]c2ccccc12)C(=O)N[C@@H](Cc1ccc(O)cc1)C(=O)N[C@@H](CC(=O)O)C(=O)N[C@@H](CO)C(=O)N[C@@H](CC(=O)O)C(=O)N[C@@H](CC(=O)O)C(=O)N[C@@H](CC(=O)O)C(N)=O (Ac-RRRRREDDDWIDWYDSDDD-NH2)
Ki (Table 14, CPPs tagged peptides): 39.5 ± 2 nM

Compound: CC(=O)N[C@H](C(=O)N[C@@H](Cc1c[nH]c2ccccc12)C(=O)NCC(=O)N1CCC[C@H]1C(=O)N[C@H](C(=O)N[C@H](C(=O)N[C@@H](CO)C(=O)N[C@@H](CCCNC(=N)N)C(=O)N[C@@H](CCC(=O)O)C(=O)N[C@@H](CC(=O)O)C(=O)NCC(N)=O)C(C)C)[C@@H](C)O)C(C)C (Ac-VWGPTVSREDG-NH2)
Ki [1]: 1740 ± 62 nM

Compound: CC[C@H](C)[C@H](NC(=O)[C@H](C)NC(=O)[C@H](Cc1c[nH]c2ccccc12)NC(=O)[C@@H]1CCCN1C(C)=O)C(=O)N[C@H](C(=O)N[C@@H](Cc1c[nH]c2ccccc12)C(=O)NCC(=O)N1CCC[C@H]1C(N)=O)C(C)C (Ac-PWAIVWGP-NH2)
Ki [1]: 597 ± 7 nM

Compound: CC[C@H](C)[C@H](NC(=O)[C@H](Cc1ccccc1)NC(=O)[C@H](CCC(=O)O)NC(=O)[C@@H](NC(=O)[C@H](CCC(=O)O)NC(C)=O)[C@@H](C)O)C(=O)N[C@@H](C)C(=O)N[C@@H](Cc1c[nH]c2ccccc12)C(=O)NCC(=O)N1CCC[C@H]1C(=O)N[C@H](C(=O)NCC(=O)N[C@@H](CC(=O)O)C(=O)N[C@@H](CCC(=O)O)C(=O)N[C@@H](CC(N)=O)C(N)=O)[C@@H](C)O (Ac-ETEFIAWGPTGDEN-NH2)
Ki [2]: 43 ± 2 nM

Compound: CC[C@H](C)[C@H](NC(=O)[C@H](C)NC(=O)[C@H](CC(=O)O)NC(=O)[C@@H]1CCCN1C(C)=O)C(=O)N[C@H](C(=O)N[C@@H](Cc1c[nH]c2ccccc12)C(=O)NCC(=O)N1CCC[C@H]1C(=O)N[C@H](C(=O)N[C@H](C(=O)N[C@@H](CO)C(=O)N[C@@H](CCCNC(=N)N)C(=O)N[C@@H](CCC(=O)O)C(=O)N[C@@H](CC(=O)O)C(N)=O)C(C)C)[C@@H](C)O)C(C)C [PDAIVWGPTVSRED] (Ac-PDAIVWGPTVSRED-NH2)
Ki (Table 12, deep mutational scanning validation variants of PIANPWT): 673 ± 7 nM

Compound: CC[C@H](C)[C@H](NC(=O)[C@H](C)NC(=O)[C@H](Cc1c[nH]c2ccccc12)NC(=O)[C@@H]1CCCN1C(C)=O)C(=O)N[C@H](C(=O)N[C@@H](Cc1c[nH]c2ccccc12)C(=O)NCC(=O)N1CCC[C@H]1C(=O)N[C@H](C(=O)N[C@H](C(=O)N[C@@H](CO)C(=O)N[C@@H](CCCNC(=N)N)C(=O)N[C@@H](CCC(=O)O)C(=O)N[C@@H](CC(=O)O)C(=O)NCC(=O)NCC(=O)N[C@@H](CC(=O)O)C(=O)N1CCC[C@H]1C(N)=O)C(C)C)[C@@H](C)O)C(C)C (Ac-PWAIVWGPTVSREDGGDP-NH2)
Ki [1]: 597 ± 7 nM

Compound: CC(=O)N[C@@H](C)C(=O)N[C@@H](CC(=O)O)C(=O)N[C@@H](CC(=O)O)C(=O)N[C@@H](CO)C(=O)N[C@@H](CC(=O)O)C(=O)N[C@H](C(=O)N[C@@H](Cc1c[nH]c2ccccc12)C(=O)N[C@@H](Cc1c[nH]c2ccccc12)C(=O)NCC(=O)NCC(=O)N[C@@H](C)C(=O)N[C@@H](CC(=O)O)C(=O)N[C@H](C(=O)N[C@@H](CC(=O)O)C(N)=O)[C@@H](C)O)C(C)C (Ac-ADDSDVWWGGADTD-NH2)
Ki (Table 7, Ala-, D-amino acids and N-methylation scans of APPWT): 803 ± 5 nM
